Where no end group is shown, it is not given here.
How the values were obtained:
[1] = test system: C. sojina Cs350 on soybean cv. Blackhawk (FLS); test: In planta post-inoculation assay of NCR13_PFV1 and azoxystrobin combinations; assay type: in vivo, Cercospora sojina; conditions: azoxystrobin alone sprayed at 3 µM and 6 µM
Experimental: To further test additive/synergistic interaction between NCR13_PFV1 and azoxystrobin against the fungicide-resistant isolate Cs350, in planta assays were performed. These assays were similar to the post-inoculation in planta assays as mentioned above. Briefly, second or third trifoliate leaves of soybean were first sprayed with 1 ml of Cs350 conidial suspension (1×10^5 ml^−1) followed by spray application with 1 ml of NCR13_PFV1 (24 µM) or azoxystrobin (3 µM or 6 µM) or their combination (24 µM NCR13_PFV1 plus 3 µM azoxystrobin or 24 µM NCR13_PFV1 plus 6 µM azoxystrobin) or water after 2 h of pathogen inoculation. Plants were incubated in the growth chamber, and disease scoring was done as described above.

[2] = test system: azoxystrobin-resistant C. sojina Cs350 conidia; test: Cell death detection assay (propidium iodide, confocal microscopy); assay type: cell-based, Cercospora sojina; conditions: azoxystrobin 48 μM alone; within 1 h; PI staining; n=3
Experimental: The fungicidal activity of azoxystrobin and peptide NCR13_PFV1 in azoxystrobin-resistant C. sojina Cs350 was analyzed by visualizing the influx of a cell death indicator dye propidium iodide (PI) using time-lapse confocal microscopy. The C. sojina conidia were treated with various concentrations of azoxystrobin, NCR13_PFV1, azoxystrobin plus NCR13_PFV1, or water and 0.5 μg ml^–1 PI, and were observed under confocal microscopy at an excitation and emission wavelength of 500 nm and 545–690 nm, respectively. Z-stacks at each time point were acquired using a ×63 water immersion objective lens (HC PL Apochromat CS2). For each sample, the number of live and dead cells after 1 h of peptide, fungicide, or combination treatment was determined.

[3] = test system: C. sojina Cs350 (fungicide resistant); test: Peptide-fungicide checkerboard assay; assay type: cell-based, Cercospora sojina
Experimental: (§1) Synergy between NCR13_PFV1 and the widely used QoI foliar fungicides, azoxystrobin (Sigma-Aldrich, Cat No: 31697), trifloxystrobin (Sigma-Aldrich, Cat No: 46447), and pyraclostrobin (Sigma-Aldrich, Cat No: 33696), were evaluated using checkerboard assays. This assay was performed in a 96-well plate and the preparation of conidial suspension, peptide dilutions, and fungicide dilutions were similar to the in vitro antifungal activity assay described above. The presence of an alternative respiration pathway allows some fungi including C. sojina to germinate even in the presence of a high dose of QoI fungicides in vitro ([Ziogas et al., 1997]; [Zhang et al., 2012]). Therefore, to prevent alternative respiration in C. sojina, salicylhydroxamic acid (SHAM) was added in each reaction at the final concentration of 60 µg ml^–1 ([Zhang et al., 2012]). The conidia, peptide, fungicide, and SHAM were added in a 96-well plate at the v/v ratio of 4:1:1:2 (50 µl:12.5 µl:12.5 µl:25 µl) in the final reaction volume of 100 µl, and the plate was incubated at room temperature for 96 h (4 d). After 96 h, MIC values of the peptide–fungicide combination, peptide alone, and fungicide alone were calculated based on microscopy as well as the resazurin cell viability assay. The fractional inhibitory concentration (FIC) index was calculated using the formula FIC = (MICA+B/MICA) + (MICB+A/MICB), where MICA and MICB are the MIC for peptide (A) alone and fungicide (B) alone, respectively, MICA+B is the MIC for peptide in combination with fungicide (A+B), and MICB+A is the MIC for fungicide in combination with peptide (B+A). The FIC index was interpreted as: synergistic, ≤0.5; additive, >0.5–1.0; indifferent, >1 to <4.0; or antagonistic, ≥4.0.

[4] = test system: C. sojina Cs320 (fungicide sensitive); test: Peptide-fungicide checkerboard assay; assay type: cell-based, Cercospora sojina; conditions: Cs320, in vitro, 96 h
Experimental: as §1

[5] = test system: C. sojina Cs350 conidia and germlings; test: Plasma membrane permeabilization assay (SYTOX Green); assay type: cell-based, Cercospora sojina; conditions: Cs350; 0.5 µM SG; confocal microscopy
Experimental: Membrane permeabilization of C. sojina Cs350 by NCR13_PFV1 and azoxystrobin was analyzed by visualizing the influx of SYTOX Green (SG) (Thermo Scientific) using time-lapse confocal microscopy. Germlings grown for 6–8 h or conidia of C. sojina were mixed with various concentrations of NCR13_PFV1, azoxystrobin, or both and 0.5 µM SG and were observed under confocal microscopy at an excitation wavelength of 500 nm and an emission wavelength ranging from 510 nm to 600 nm at specific time intervals. A z-stack at each time point was acquired using a ×63 water immersion objective lens (HC PL Apochromat CS2).

[6] = test system: C. sojina QoI fungicide-sensitive isolate Cs320; test: microbe, parasite or virus in culture; assay type: cell-based, Cercospora sojina
Experimental: (§2) In vitro antifungal activity of AFPs and QoI fungicides was determined using 96-well plate assays as described ([Velivelli et al., 2020]) with slight modifications. Briefly, 2- to 3-week-old C. sojina was used to make a conidial suspension in 2× SFM at the final concentration of ∼10^5 conidia ml^−1. Simultaneously, peptide dilutions (in water) at various concentrations were made. Fungicides were dissolved in 50% acetone and 50% water to make a stock solution of 500 µM, and serial dilutions were made in water as needed. The peptide–conidia or the fungicide–conidia mixture at the ratio of 1:1 (45 µl:45 µl) was added in a 96-well plate and incubated at room temperature for 48 h, after which MICs of the peptides/fungicides were calculated based on microscopy as well as the resazurin cell viability assay ([Velivelli et al., 2020]).

[7] = Peroxidase assay (TMB substrate); assay type: biochemical; conditions: heme 5 µM, peptide 5 µM, absorption at 370 nm and 652 nm
Experimental: A Pierce TMB substrate kit (Thermo Scientific) was used to measure the peroxidase activity of heme. In a transparent 96-well plate, 50 µl of TMB substrate and 50 µl of […] were added followed by addition of heme (5 µM) or peptides plus heme (5 µM each). The reaction progression was measured in the Tecan plate reader, by recording UV-vis absorption values at 370 nm and 652 nm for every minute up to 1 h.

[8] = Heme-peptide binding assay (colour change); conditions: equimolar heme and peptide, 100 µM, 1 h, room temperature
Experimental: Heme solutions were freshly prepared by dissolving hemin chloride (Sigma Cat No: 3741) in 0.1 M NaOH and used within an hour after preparation. Two heme-sequestering peptides, NCR247 and NCR455 ([Montiel et al., 2017]; [Sankari et al., 2022]), were used as positive controls, and water-only treatment as a negative control. The equimolar concentration of heme and peptide (100 µM) or water were mixed and incubated at room temperature for 1 h. When dissolved in NaOH, heme is light to dark brown in color; however, when it binds to a peptide, the color changes to reddish-brown as described by [Sankari et al. (2022)]. The change in color of heme to reddish-brown indicated the heme binding ability of the peptide.

[9] = test system: fungicide-sensitive and -resistant isolates of C. sojina; test: In vitro antifungal activity assay (MIC stated across isolates); assay type: cell-based, Cercospora sojina
Experimental: as §2

[10] = test system: C. sojina QoI fungicide-resistant isolate Cs350; assay type: cell-based, Cercospora sojina
Experimental: as §2

[11] = SFM, ~10^5 conidia ml−1, room temperature, 48 h, resazurin cell viability assay and microscopy

In the case of `CO/C=C(/C(=O)OC)c1ccccc1Oc1cc(Oc2ccccc2C#N)ncn1` [Azoxystrobin, azoxystrobin], the “FLS symptoms in planta” value [1] is reported as “able to reduce FLS symptoms in planta”, the cell death [2] is reported as 11% and the “interaction with NCR13_PFV1 by FIC index” value ([3]; Cs350, in vitro, 96 h) is reported as “additive (additive, >0.5–1.0)”. The FIC score ([3]; pair azoxystrobin / NCR13_PFV1, Cs350, 4 d) was at most 1, the “Combination MIC” value ([3]; pair azoxystrobin / NCR13_PFV1, Cs350, 4 d, SHAM 60 µg ml–1, microscopy) was 48 µM and the MIC ([3]; pair azoxystrobin / NCR13_PFV1, Cs350, 4 d, SHAM 60 µg ml–1, microscopy, highest fungicide concentration 48 µM, read-out: Individual MIC) was over 48 µM. For the same compound, the “interaction with NCR13_PFV1 by FIC index” value [4] was “additive (additive, >0.5–1.0)”, the “plasma membrane permeabilization (SYTOX Green uptake)” value [5] was “did not permeabilize the plasma membrane” and the “MIC (µM) against Fungicide sensitive C. sojina isolate (Cs320)” value ([6]; QoI fungicides, determined in 2 days, 0.02 µM lowest concentration tested) was 0.09 to 0.18 µM.

With “RNGCIVDARCPYQKCSYPLYCRRR [NCR455, reference compound]” the “peroxidase activity of heme and FeSO4 in the presence of peptide” value [7] was “reduced or stopped” and the “heme binding (colour change of heme from brown to reddish-brown)” value [8] was “visible color change of heme from brown to reddish-brown”.

For “TKPCQSDKDCKKFACRKPKVPKCINGFCKCVR (disulfide (positions not given here)) [NCR13_PFV2]”, the “peroxidase activity of heme and FeSO4 in the presence of peptide” value [7] was “not reduced or stopped”, the “fold less potent than NCR13_PFV1” value ([9]; from MIC against C. sojina) was 2 fold and the “MIC against fungicide-sensitive and -resistant isolates of C. sojina” value ([9]; range over Cs320 and Cs350, 48 h) was 1.5 to 3 µM. For the same compound, the “MIC (μM) against C. sojina isolates, Fungicide sensitive, Cs320” value [6, 11] was 1.5 µM, the “fold increase of MIC with increasing iron concentration” value ([10]; FeSO4 in SFM) was 2 fold and the “MIC (μM) against C. sojina, Fungicide resistant, Cs350” value [10, 11] was 3 µM. The “heme binding (colour change of heme from brown to reddish-brown)” value [8] was “no such color change”.

Reference: paper PMC13672995, “NCR13 peptide protects soybean against Cercospora sojina using multi-faceted modes of action and additive interaction with chemical fungicides” (Journal of Experimental Botany, 2025)
